Data: ChEMBL document CHEMBL3286379, “Design and synthesis of pyrimidine molecules endowed with thiazolidin-4-one as new anticancer agents” (Eur J Med Chem, 2014)

Legend:
[1] = tested on: Rattus norvegicus; assay: Hepatotoxicity in rat assessed as SGOT level at 0.12 mg/kg, po after 12 days (reference value: 140.23 +/- 1.39 U/mL); assay type: toxicity, organism-based; design: dose 0.12 mg/kg, route oral; settings: in vivo, 288 h
[2] = tested on: Rattus norvegicus; assay: Hepatotoxicity in rat assessed as SGPT level at 0.12 mg/kg, po after 12 days (reference value: 31.17 +/- 0.39 U/mL); assay type: toxicity, organism-based; design: dose 0.12 mg/kg, route oral; settings: in vivo, 288 h

For O=c1[nH]cc(F)c(=O)[nH]1 [FLUOROURACIL], which Activity [1] is on record?
The Activity was 151.21 U/ml.

What about the Activity [2] of the same compound?
The Activity was 32.75 U/ml.
